Assay results published in patent US20180264245A1, “Skin Care Applicator” (The Procter & Gamble Company, priority 2017, published 2018).
Values belong to the compound of their own block, whether it stands above or below them. Where a SMILES comes first, the peptide text is derived from it.

How the values were obtained:
[1] = Inositol in vitro skin penetration study (Franz Diffusion Cell assay); format: in vitro ADME, human; conditions: 0.5% inositol product, 24 hours; magnet with vibration vs. finger application or applicator incorporating a magnet; particularly in the epidermis; FIG. 6
Protocol: Skin penetration was measured using the Franz Diffusion Cell assay. Split-thickness (dermatomed) human cadaver skin was thawed under ambient conditions, cut into appropriately sized sections, and mounted in standard Franz-type diffusion cells (0.79 cm^2 surface area) maintained at about 37° C. The receptor compartments were filled with 5 mL phosphate buffered saline (PBS-pH 7.4) that included 1% polysorbate-20 and 0.02% sodium azide, and the skin was allowed to equilibrate for two hours. The cells were qualified upon ^3H20 flux through the mounted skin (150 μL of ^3H20 applied for five minutes and removed; receptor fluid was collected after one hour and analyzed using scintillation spectrometry). […] Where indicated, aliquots of the test products/formulations were spiked with the appropriate radioactive material (^3H-inositol, ^14C-niacinamide, ^14[…] or ^14C-retinyl propionate) with approximately 3 μCi per 300 mg product aliquot, mixed and assayed for total radioactivity in triplicate using Ultima Gold [Perkin-Elmer] liquid scintillation cocktail (LSC) and liquid scintillation counting. […] Active materials in receptor phase, filter paper wipes and solubilized skin samples were quantified using liquid scintillation. […]

[2] = Pal KTTKS in vivo skin penetration study (tape stripping); set-up: species or system human; key to significance of mean μg PalKTTKS/μg skin of Strip 6-10: “s” indicates significant difference vs. mean of passive (p < 0.1); conditions: for μg PalKTTKS/μg skin of Strip 6-10: cream; for Enhancement for strip 6-10: w Vibration vs. w/o Vibration
Protocol: An in vivo skin penetration study was conducted to establish the effect of using a skin care product of the present invention by applying a skin care composition comprising a peptide, in this case, Pal KTTKS, with an applicator comprising a magnetic array and a vibration source. The study used 10 active study sites (composition applied to target skin surface using an applicator containing a magnetic array and vibration source of the present invention) versus 10 control study sites (composition applied to target skin surface using an applicator with just a magnetic array). In this example, the level of Pal KTTKS present in the extract from each tape strip was measured using HPLC and the results normalized to the protein level measured on the tape strip.
This method provides a suitable means of measuring the amount of skin care active present in skin, and comparing active versus passive application of the skin care active. Two identical circular areas of 7.9 cm^2 were marked on the volar forearms of volunteers. A measured dose (approximately 9 mg) of the skin care formulation (ingredients shown in Table 1) was applied to the delineated areas using a screw actuated syringe. Application was carried out in each case using purpose made applicators having a metallic aluminium skin contact surface behind which was the magnetic array. The cream was spread evenly across the entire delineated region using the applicator in a sweeping motion with a fixed speed of approximately 3.5 cm/s to mimic normal finger application. The application period was 30 seconds during which time visual inspection was used to ensure even distribution and absorption of the formulation by skin. The application area was then left uncovered for a further 30 minutes to ensure complete absorption. The application area was then wiped thoroughly to remove any surface material, followed by carrying out tape stripping.
The Tape Stripping method can be carried out using commercial pre-cut 22.1 mm tape stripping adhesive discs (D-Squame, Cuderm Corporation or equivalent) with an adhesive area of 3.8 cm^2. A 22.1 mm diameter circular region was marked at the centre of the application area. A tape stripping adhesive disc was placed over the marked area and even pressure applied using a neoprene roller, rolled ten times over the surface. The adhesive disc was removed from the skin surface in a single pulling motion using manual tweezers. To ensure even removal of the stratum corneum, subsequent discs were removed in a north, south, east and west orientation. Each adhesive disc was non-destructively analysed for relative protein content using the SquameScan™ 850 instrument (Heiland Electronics Wetzlar Germany). The adhesive disc was then immediately placed into a glass vial containing extraction solvent in preparation for subsequent analysis. Solvent extractions are conducted on each tape strip using conventional extraction methods, which are well known to those of ordinary skill in the art, and measuring the amount of niacinamide present in the extract, for example, by high performance liquid chromatography (“HPLC”) and/or mass spectrometry.
The procedure was repeated for the remaining nine strips. An additional strip was obtained from outside the area of application of the skin care formulation to serve as a blank sample.

[3] = unit not given; cited from earlier work

Compound: OC1C(O)[C@H](O)[C@@H](O)C(O)[C@H]1O (stereo in doubt) [inositol, cyclohexane-1,2,3,4,5,6-hexol]
penetration into skin of inositol [1]: significant increase in penetration into skin

significance of mean μg PalKTTKS/μg skin of Strip 6-10 ([2]; Magnetic Micro array w Vibration, Mean, vs. mean of passive): s
μg PalKTTKS/μg skin of Strip 6-10 ([2]; Magnetic Micro array w Vibration, Mean of 10 panelists): 0.02522 μg PalKTTKS/μg skin
μg PalKTTKS/μg skin of Strip 6-10 ([2]; Magnetic Micro array w Vibration, Panelist1): 0.01152 μg PalKTTKS/μg skin
μg PalKTTKS/μg skin of Strip 6-10 ([2]; Magnetic Micro array w Vibration, Panelist2): 0.02161 μg PalKTTKS/μg skin
μg PalKTTKS/μg skin of Strip 6-10 ([2]; Magnetic Micro array w Vibration, Panelist3): 0.01304 μg PalKTTKS/μg skin
μg PalKTTKS/μg skin of Strip 6-10 ([2]; Magnetic Micro array w Vibration, Panelist4): 0.0258 μg PalKTTKS/μg skin
μg PalKTTKS/μg skin of Strip 6-10 ([2]; Magnetic Micro array w Vibration, Panelist5): 0.0568 μg PalKTTKS/μg skin
μg PalKTTKS/μg skin of Strip 6-10 ([2]; Magnetic Micro array w Vibration, Panelist6): 0.04369 μg PalKTTKS/μg skin
μg PalKTTKS/μg skin of Strip 6-10 ([2]; Magnetic Micro array w Vibration, Panelist7): 0.02184 μg PalKTTKS/μg skin
μg PalKTTKS/μg skin of Strip 6-10 ([2]; Magnetic Micro array w Vibration, Panelist8): 0.02081 μg PalKTTKS/μg skin
μg PalKTTKS/μg skin of Strip 6-10 ([2]; Magnetic Micro array w Vibration, Panelist9): 0.01648 μg PalKTTKS/μg skin
μg PalKTTKS/μg skin of Strip 6-10 ([2]; Magnetic Micro array w Vibration, Panelist10): 0.02061 μg PalKTTKS/μg skin
μg PalKTTKS/μg skin of Strip 6-10 ([2]; Magnetic Micro array w/o Vibration, Mean of 10 panelists): 0.02166 μg PalKTTKS/μg skin
μg PalKTTKS/μg skin of Strip 6-10 ([2]; Magnetic Micro array w/o Vibration, Panelist1): 0.0107 μg PalKTTKS/μg skin
μg PalKTTKS/μg skin of Strip 6-10 ([2]; Magnetic Micro array w/o Vibration, Panelist2): 0.01869 μg PalKTTKS/μg skin
μg PalKTTKS/μg skin of Strip 6-10 ([2]; Magnetic Micro array w/o Vibration, Panelist3): 0.00663 μg PalKTTKS/μg skin
μg PalKTTKS/μg skin of Strip 6-10 ([2]; Magnetic Micro array w/o Vibration, Panelist4): 0.01973 μg PalKTTKS/μg skin
μg PalKTTKS/μg skin of Strip 6-10 ([2]; Magnetic Micro array w/o Vibration, Panelist5): 0.05444 μg PalKTTKS/μg skin
μg PalKTTKS/μg skin of Strip 6-10 ([2]; Magnetic Micro array w/o Vibration, Panelist6): 0.03195 μg PalKTTKS/μg skin
μg PalKTTKS/μg skin of Strip 6-10 ([2]; Magnetic Micro array w/o Vibration, Panelist7): 0.02902 μg PalKTTKS/μg skin
μg PalKTTKS/μg skin of Strip 6-10 ([2]; Magnetic Micro array w/o Vibration, Panelist8): 0.01924 μg PalKTTKS/μg skin
μg PalKTTKS/μg skin of Strip 6-10 ([2]; Magnetic Micro array w/o Vibration, Panelist9): 0.00638 μg PalKTTKS/μg skin
μg PalKTTKS/μg skin of Strip 6-10 ([2]; Magnetic Micro array w/o Vibration, Panelist10): 0.01984 μg PalKTTKS/μg skin
penetration of the active into skin ([2]; applicator combining magnetic array with vibration source vs. control applicator with just a magnetic array): penetration of the active is enhanced
Enhancement for strip 6-10 ([2]; Mean): 1.337
Enhancement for strip 6-10 ([2]; Panelist1): 1.077
Enhancement for strip 6-10 ([2]; Panelist2): 1.156
Enhancement for strip 6-10 ([2]; Panelist3): 1.966
Enhancement for strip 6-10 ([2]; Panelist4): 1.307
Enhancement for strip 6-10 ([2]; Panelist5): 1.043
Enhancement for strip 6-10 ([2]; Panelist6): 1.367
Enhancement for strip 6-10 ([2]; Panelist7): 0.7528
Enhancement for strip 6-10 ([2]; Panelist8): 1.081
Enhancement for strip 6-10 ([2]; Panelist9): 2.582
Enhancement for strip 6-10 ([2]; Panelist10): 1.039
Compound: CCCCCCCCCCCCCCCC(=O)N[C@@H](CCCCN)C(=O)N[C@H](C(=O)N[C@H](C(=O)N[C@@H](CCCCN)C(=O)N[C@@H](CO)C(=O)O)[C@@H](C)O)[C@@H](C)O [PalKTTKS, palimitoyl-lysine-threonine-threonine-lysine-serine] (HELM PEPTIDE1{[CCCCCCCCCCCCCCCC(=O)[*:2]].K.T.T.K.S}$$$$V2.0; C-terminus assumed)
diamagnetic susceptibility [3]: approximately −519
